From patent publication US10676438B2, “KCNQ2-5 channel activator” (Ono Pharmaceutical Co., Ltd., priority 2014, dated 2020)
In brackets after ≈: the same amount, converted by molar mass.

Assays:
[1] = Solubility test (DMSO precipitation method, Pharmacopoeia of Japan elution test second solution); assay type: physicochemical; settings: aqueous buffer, kinetic from dmso stock; Pharmacopoeia of Japan elution test second solution pH=6.8, room temperature, five hours; quantitation range 5 to 100 μM
Procedure: A calibration curve solution was prepared by diluting a test substance (10 mM DMSO solution) with acetonitrile and adding acetonitrile including an internal standard substance (candesartan) so as to be 0.1, 0.4, and 2 μM.
Sample solution was prepared as follows: 5 μL of the compound of the present invention (10 mM DMSO solution) was added to 495 μL of the Pharmacopoeia of Japan elution test second solution (pH=6.8), and the resulting mixture was stirred at room temperature for five hours. Then, the solution was placed into a solubility filter plate and subjected to suction filtration. The filtrate (20 μL) was diluted with acetonitrile, followed by adding acetonitrile including an internal standard substance ([…]).
The calibration curve and sample solutions in the amount of 5 μL were infused into LC-MS/MS (Discovery Max manufactured by Thermo Scientific) and subjected to quantitation (quantitation range: 5 to 100 μM).

Human KCNQ2/3 channel = Human KCNQ2/3 channel (Homo sapiens (Human), UniProt O43525+O43526); experiment: Opening action with respect to KCNQ2/3 channel by depolarization stimulation (thallium influx, FLIPR); assay type: cell-based; settings: concentration giving 50% of maximum reaction of retigabine (10 μM); human KCNQ2/3 expression CHO-DHFR- cells; 5 mM potassium and 0.5 mM thallium; read-out: KCNQ2/3 ECrtg50
Procedure: Human KCNQ2/3 expression cells (CHO-DHFR-cells) were seeded in each well of 384 well plate (collagen-coated, black, clear bottom) at 0.5×10^4 cells/50 μL per well, and cultured in a MEM ALPHA medium (containing 10 vol % inactivated (56° C., 30 min) Fetal Bovine Serum and 100 IU/mL Penicillin—100 μg/mL Streptomycin—2 mM L-Glutamine) at 37° C. in 5% CO2 for 18 to 24 hours. The medium in the plate was removed. Then, incubation (room temperature, 60 minutes, light-shielded) was carried out in a loading buffer (prepared by the method described in the manual of FluxOR Thallium Detection Kit (Invitrogen, F10016, F10017)). KCNQ2/3 channel opening action (thallium influx into cells) by the depolarization stimulation (5 mM potassium and 0.5 mM thallium) was measured by FLIPR TETRA (Molecular Devices). The compound of the present invention had been treated five minutes before the depolarization stimulation, and the reaction induced by the depolarization stimulation was measured over time for 180 seconds. The channel opening action of the compound of the present invention was evaluated based on the change amount of the fluorescence intensity from the time before the depolarization stimulation to the time after the passage of 180 seconds. Thus, the concentration (ECrtg50) satisfying 50% of the fluorescence intensity change of maximum reaction (at the time of 10 μM-treatment) of retigabine under this experiment condition was calculated.

[2] = Evaluation of stability in human liver microsome; assay type: in vitro ADME; settings: 5 μmol/L
Procedure: A test compound (10 mmol/L DMSO solution, 5 μL) was diluted with 50% acetonitrile aqueous solution (195 μL) to prepare 0.25 mmol/L solution.
To a reactor vessel which had been warmed to 37° C. in advance, 0.5 mg/mL of human liver microsome (Xenotech) and 245 μL of 0.1 M phosphate buffer solution (pH 7.4) including NADPH-Co-factor (BD Biosciences) were added, followed by preincubation for five minutes. Then, the above-mentioned test compound solution (5 μL) was added so as to start reaction (final concentration: 5 μmol/L). Immediately after the start, 20 μL was harvested and added to 180 μL of acetonitrile including an internal standard substance (warfarin) to stop the reaction. This solution (20 μL) was stirred with 180 μL of 50% acetonitrile aqueous solution on a plate equipped with a deproteinization filter. Then, the resulting mixture solution was subjected to suction filtration. The filtrate was adopted as a standard sample.
The above-mentioned reaction solution was incubated at 37° C. for 15 minutes, and 20 μL of the solution was added to 180 μL of cooled acetonitrile (including warfarin that is an internal standard substance) to stop the reaction. This solution (20 μL) was stirred with 180 μL of 50% acetonitrile aqueous solution on a plate equipped with a deproteinization filter, and then the resulting mixture solution was subjected to suction filtration. The filtrate was adopted as a reaction sample.
Residual rate (%) was obtained as follows: 1 μL of the sample solution was infused into LC-MS/MS (Discovery Max manufactured by Thermo Scientific), and a quotient obtained by dividing a peak area ratio of the reaction sample (peak area of test compound/peak area of internal standard substance) was divided by the peak area ratio of the standard sample was multiplied by 100.

[3] = test system: urinary bladder extracted from rat; experiment: Relaxing action on urinary bladder extracted from rat (rat Magnus test); settings: concentration at which tension change rate is -20%; carbachol 1 μM-induced contraction of rat urinary bladder strips
Procedure: Female Jcl Wistar rats (CLEA Japan, Inc., body weight in use: 170 to 200 g) were anesthetized by intraperitoneal administration of about 40 mg/kg of pentobarbital (Somnopentyl, Schering Plough Animal Health Corporation), and killed by bloodletting, followed by abdominal incision to extract the urinary bladder. Immediately, the extracted urinary bladder was immersed in ice-cooled Krebs buffer (Krebs Ringer bicarbonate buffer (Sigma-Aldlich Co.) containing sodium hydrogencarbonate (final concentration: 15 mM) and calcium chloride (final concentration: 2.5 mM)) which had been saturated with a mixed gas (95% O2, 5% CO2).
The urinary bladder bodies were cut in the longitudinal direction to prepare strip specimens (about 10×3 mm) on ice. Immediately, the prepared specimens were suspended in a Magnus tube with 500 mg of tension loaded. The tube was filled with Krebs buffer (37° C.) aerated with a mixed gas. Note here that specimens were prepared within 24 hours after extraction of the tissue.
When one hour or more had passed after the specimen was suspended, 2.5M KCl was added so that the final concentration became 100 mM, specimens showing contraction reaction were used.
Carbachol (a contraction-inducing substance) at the concentration of contraction of 1 μM was used to induce contraction. […] After the contraction reaction was stabilized, a physiological salt solution or the compound of the present invention was added in a cumulative manner from low concentration such that the final concentration became 1, 10, 100 nM, 1 and 10 μM.
The tension (mg) of the extracted urinary bladder was employed as an evaluation parameter. The tension was read by using analysis software WAVE THERMO 1000. Tension after addition of the contraction-inducing substance was set to 0%. The change rate of the tension after addition of the compound of the present invention relative to the tension after addition of the contraction-inducing substance was defined as tension change rate (%). The tension change rate (%) was adopted as an evaluation indicator. The tension change rate (%) is calculated from the following formula. Tension change rate (%)={Tension after addition of compound of the present invention and the like (mg)−Tension before addition of contraction-inducing substance (mg)}/{Tension after addition of contraction-inducing substance (mg)−Tension before addition of contraction-inducing substance (mg)}×100−100
The value at which the tension change rate (%) was −20% was calculated as IC20, and the value was adopted as an indicator of the relaxing action of the extracted urinary bladder.

hERG channel = hERG channel (Homo sapiens (Human), UniProt Q12809); experiment: Evaluation of action on hERG IKr current (patch-clamp); assay type: cell-based; settings: HEK293 cell overexpressing hERG, maximum tail current, 10 minutes after application; read-out: IC50 (50% inhibitory activity of hERG channel)
hERG channel, sequence (Q12809 whole entry): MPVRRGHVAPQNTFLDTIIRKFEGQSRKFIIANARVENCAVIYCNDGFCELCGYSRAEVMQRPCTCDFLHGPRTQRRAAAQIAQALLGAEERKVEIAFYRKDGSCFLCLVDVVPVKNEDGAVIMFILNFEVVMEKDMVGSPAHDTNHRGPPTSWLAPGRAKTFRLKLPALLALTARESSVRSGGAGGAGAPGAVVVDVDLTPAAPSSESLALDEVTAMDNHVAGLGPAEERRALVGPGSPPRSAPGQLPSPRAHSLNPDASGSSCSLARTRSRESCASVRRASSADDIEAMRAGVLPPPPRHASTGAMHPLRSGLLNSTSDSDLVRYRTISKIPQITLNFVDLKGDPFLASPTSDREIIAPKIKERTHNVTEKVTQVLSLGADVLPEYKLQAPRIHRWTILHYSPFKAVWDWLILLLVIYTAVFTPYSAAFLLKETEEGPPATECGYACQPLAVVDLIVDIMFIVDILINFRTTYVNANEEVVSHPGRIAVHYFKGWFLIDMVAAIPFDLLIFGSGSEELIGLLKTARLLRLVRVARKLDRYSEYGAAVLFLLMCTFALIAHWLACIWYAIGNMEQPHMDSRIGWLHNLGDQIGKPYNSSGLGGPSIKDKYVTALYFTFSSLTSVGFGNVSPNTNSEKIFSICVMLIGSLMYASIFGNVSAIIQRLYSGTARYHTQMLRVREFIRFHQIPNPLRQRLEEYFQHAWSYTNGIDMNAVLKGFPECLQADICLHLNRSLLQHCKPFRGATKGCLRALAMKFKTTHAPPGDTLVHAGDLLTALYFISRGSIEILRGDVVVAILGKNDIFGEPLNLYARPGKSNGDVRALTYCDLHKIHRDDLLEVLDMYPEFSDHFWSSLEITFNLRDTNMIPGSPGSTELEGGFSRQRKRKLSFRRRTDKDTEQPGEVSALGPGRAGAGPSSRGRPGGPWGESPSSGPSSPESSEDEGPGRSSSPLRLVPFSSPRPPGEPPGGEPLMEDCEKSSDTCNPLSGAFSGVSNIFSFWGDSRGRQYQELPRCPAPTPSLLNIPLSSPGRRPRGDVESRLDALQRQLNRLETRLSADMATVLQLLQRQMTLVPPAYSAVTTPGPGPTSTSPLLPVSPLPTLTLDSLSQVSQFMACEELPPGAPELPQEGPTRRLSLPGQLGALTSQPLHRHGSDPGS
Procedure: Using HEK293 cell overexpressing a human ether-a-go-go-related gene (hERG), the maximum tale current of the hERG IKr current induced by redepolarization pulse subsequent to depolarization pulse was measured by a patch-clamp method.

[4] = human liver microsome 0.5 mg/mL, NADPH, 37° C., 15 minutes

solubility at 5 h [1] [µM]	EC50 (Human KCNQ2/3 channel) [nM]	Residual rate ([2]; human, 15 min, pH 7.4) [%]	Compound	IC20 [3] [nM]	IC50 (hERG channel) [nM]	Residual rate [2, 4] [%]
77 (≈ 36.7 µg/mL)	60	100	C[C@@](O)(c1cc(Cl)c(NC(=O)NCc2ccc(C(F)(F)F)cn2)c(Cl)c1)C(F)(F)F [Example 22 (1), 1-{2,6-dichloro-4-[(2R)-1,1,1-trifluoro-2-hydroxy-2-propanyl]phenyl}-3-{[5-(trifluoromethyl)-2-pyridinyl]methyl}urea]	300	> 10000	–
89 (≈ 42.5 µg/mL)	500	100	C[C@@](O)(c1cc(Cl)c(NC(=O)NCc2ncc(C(F)(F)F)cn2)c(Cl)c1)C(F)(F)F [Example 22 (2), 1-{2,6-dichloro-4-[(2R)-1,1,1-trifluoro-2-hydroxy-2-propanyl]phenyl}-3-{[5-(trifluoromethyl)-2-pyrimidinyl]methyl}urea]	400	> 10000	–
81 (≈ 38.6 µg/mL)	200	98	C[C@@](O)(c1cc(Cl)c(NC(=O)NCc2ccc(C(F)(F)F)nc2)c(Cl)c1)C(F)(F)F [Example 22 (3), 1-{2,6-dichloro-4-[(2R)-1,1,1-trifluoro-2-hydroxy-2-propanyl]phenyl}-3-{[6-(trifluoromethyl)-3-pyridinyl]methyl}urea]	300	> 10000	–
96 (≈ 45.8 µg/mL)	1400	78	C[C@](O)(c1cc(Cl)c(NC(=O)NCc2ncc(C(F)(F)F)cn2)c(Cl)c1)C(F)(F)F [Example 25 (1), 1-{2,6-dichloro-4-[(2S)-1,1,1-trifluoro-2-hydroxy-2-propanyl]phenyl}-3-{[5-(trifluoromethyl)-2-pyrimidinyl]methyl}urea]	600	> 10000	–
86 (≈ 41 µg/mL)	300	80	C[C@](O)(c1cc(Cl)c(NC(=O)NCc2ccc(C(F)(F)F)nc2)c(Cl)c1)C(F)(F)F [Example 25 (2), 1-{2,6-dichloro-4-[(2S)-1,1,1-trifluoro-2-hydroxy-2-propanyl]phenyl}-3-{[6-(trifluoromethyl)-3-pyridinyl]methyl}urea]	200	> 10000	–
98 (≈ 43.4 µg/mL)	–	87	C[C@](O)(c1cc(Cl)c(NC(=O)NCc2ccc(Cl)cn2)c(Cl)c1)C(F)(F)F [Example 25 (5), 1-[(5-chloro-2-pyridinyl)methyl]-3-{2,6-dichloro-4-[(2S)-1,1,1-trifluoro-2-hydroxy-2-propanyl]phenyl}urea]	500	> 10000	–
100 (≈ 45.3 µg/mL)	7	–	O=C(NCc1nc(C(F)(F)F)no1)Nc1c(Cl)cc([C@@H](O)C(F)(F)F)cc1Cl [Example 32 (1), 1-{2,6-dichloro-4-[(1R)-2,2,2-trifluoro-1-hydroxyethyl]phenyl}-3-{[3-(trifluoromethyl)-1,2,4-oxadiazole-5-yl]methyl}urea]	20	–	–
100 (≈ 45.3 µg/mL)	8	100	O=C(NCc1nc(C(F)(F)F)no1)Nc1c(Cl)cc([C@H](O)C(F)(F)F)cc1Cl [Example 35 (1), 1-{2,6-dichloro-4-[(1S)-2,2,2-trifluoro-1-hydroxyethyl]phenyl}-3-{[3-(trifluoromethyl)-1,2,4-oxadiazole-5-yl]methyl}urea]	20	–	–
82 (≈ 33.6 µg/mL)	60	96	CC(O)(c1cc(Cl)c(NC(=O)Cc2ccc(F)cc2)c(Cl)c1)C(F)(F)F (stereo not shown) [Example 50 (1), N-[2,6-dichloro-4-(1,1,1-trifluoro-2-hydroxy-2-propanyl)phenyl]-2-(4-fluorophenyl)acetamide]	–	> 10000	–
87 (≈ 40.1 µg/mL)	1600	82	NC(c1cc(Cl)c(NC(=O)NCc2ccc(C(F)(F)F)cn2)c(Cl)c1)C(F)(F)F (stereo not shown) [Example 79 (1), 1-[4-(1-amino-2,2,2-trifluoroethyl)-2,6-dichlorophenyl]-3-{[5-(trifluoromethyl)-2-pyridinyl]methyl}urea]	–	> 10000	–

Compound	solubility at 5 h [1] [µM]	EC50 (Human KCNQ2/3 channel) [nM]	Residual rate ([2]; human, 15 min, pH 7.4) [%]	IC20 [3] [nM]	IC50 (hERG channel) [nM]	Residual rate [2, 4] [%]
C[C@@](O)(c1cc(Cl)c(NC(=O)NCc2nc(C(F)(F)F)no2)c(Cl)c1)C(F)(F)F [Example 23, 1-{2,6-dichloro-4-[(2R)-1,1,1-trifluoro-2-hydroxy-2-propanyl]phenyl}-3-{[3-(trifluoromethyl)-1,2,4-oxadiazole-5-yl]methyl}urea]	46 (≈ 21.5 µg/mL)	10	–	100	–	100
C[C@](O)(c1cc(Cl)c(NC(=O)NCc2nc(C(F)(F)F)no2)c(Cl)c1)C(F)(F)F [Example 26, 1-{2,6-dichloro-4-[(2S)-1,1,1-trifluoro-2-hydroxy-2-propanyl]phenyl}-3-{[3-(trifluoromethyl)-1,2,4-oxadiazole-5-yl]methyl}urea]	59 (≈ 27.6 µg/mL)	40	–	200	–	64
